Experimental data published in PubChem BioAssay AID1963838 (Molecular Pharmacology Branch, DTP, NCI, 2024).

Test system: 855422-203-R-J1-PDC complex spheroid viability
Assay: Anticancer human tumor 855422-203-R-J1-PDC patient-derived bladder carcinoma cell line growth inhibition [POLQ]
Settings: for IC50: curve of first compound; for viability, T/C: stronger effect = lower value
Summary of the method: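 PDC + HUVEC + MSC complex spheroids; POLQ inhibitors ± partner drugs; top conc. at/near clinical Cmax, else 10 microM (SN-38 1 microM), half-log dilutions; 37 degrees C, 5% CO2.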

[1] = second compound 0.0316 µM, first compound 0.0316 µM
[2] = second compound 0.0316 µM, first compound 0.1 µM
[3] = second compound 0.0316 µM, first compound 0.316 µM
[4] = second compound 0.0316 µM, first compound 1 µM
[5] = second compound 0.0316 µM, first compound 3.16 µM
[6] = second compound 0.0316 µM, first compound 10 µM
[7] = second compound 0.1 µM, first compound 0.0316 µM
[8] = second compound 0.1 µM, first compound 0.1 µM
[9] = second compound 0.1 µM, first compound 0.316 µM
[10] = second compound 0.1 µM, first compound 1 µM
[11] = second compound 0.1 µM, first compound 3.16 µM
[12] = second compound 0.1 µM, first compound 10 µM
[13] = second compound 0.316 µM, first compound 0.0316 µM
[14] = second compound 0.316 µM, first compound 0.1 µM
[15] = second compound 0.316 µM, first compound 0.316 µM
[16] = second compound 0.316 µM, first compound 1 µM
[17] = second compound 0.316 µM, first compound 3.16 µM
[18] = second compound 0.316 µM, first compound 10 µM
[19] = second compound 1 µM, first compound 0.0316 µM
[20] = second compound 1 µM, first compound 0.1 µM
[21] = second compound 1 µM, first compound 0.316 µM
[22] = second compound 1 µM, first compound 1 µM
[23] = second compound 1 µM, first compound 3.16 µM
[24] = second compound 1 µM, first compound 10 µM
[25] = second compound 3.16 µM, first compound 0.0316 µM
[26] = second compound 3.16 µM, first compound 0.1 µM
[27] = second compound 3.16 µM, first compound 0.316 µM
[28] = second compound 3.16 µM, first compound 1 µM
[29] = second compound 3.16 µM, first compound 3.16 µM
[30] = second compound 3.16 µM, first compound 10 µM
[31] = second compound 10 µM, first compound 0.0316 µM
[32] = second compound 10 µM, first compound 0.1 µM
[33] = second compound 10 µM, first compound 0.316 µM
[34] = second compound 10 µM, first compound 1 µM
[35] = second compound 10 µM, first compound 3.16 µM
[36] = second compound 10 µM, first compound 10 µM
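Note: spheroids exposed to compounds for seven days before readout.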

Question: What does the source list for `Nc1ccn(C2OC(CO)C(O)C2(F)F)c(=O)n1` (stereo unspecified) + Nc1ccc(C#CCN(C(=O)Cc2ncc(C(F)(F)F)cc2C(F)(F)F)c2ccc(F)cc2)nn1?
Answer: IC50 (second compound 0.0316 µM): 61.9 nM; IC50 (second compound 0.1 µM): 62.5 nM; IC50 (second compound 0.316 µM): 82.3 nM; IC50 (second compound 1 µM): 91.2 nM; IC50 (second compound 3.16 µM): 207 nM; IC50 (second compound 10 µM): 447 nM; viability, T/C [1]: 93.6%; viability, T/C [2]: 18.9%; viability, T/C [3]: 17.6%; viability, T/C [4]: 13.8%; viability, T/C [5]: 11%; viability, T/C [6]: 6.83%; viability, T/C [7]: 99.3%; viability, T/C [8]: 15.9%; viability, T/C [9]: 18.2%; viability, T/C [10]: 14.1%; viability, T/C [11]: 12.3%; viability, T/C [12]: 9.34%; viability, T/C [13]: 148%; viability, T/C [14]: 29.9%; viability, T/C [15]: 16%; viability, T/C [16]: 18.6%; viability, T/C [17]: 11.3%; viability, T/C [18]: 8.21%; viability, T/C [19]: 136%; viability, T/C [20]: 42.2%; viability, T/C [21]: 16.8%; viability, T/C [22]: 14.5%; viability, T/C [23]: 11.3%; viability, T/C [24]: 10.8%; viability, T/C [25]: 118%; viability, T/C [26]: 103%; viability, T/C [27]: 19.4%; viability, T/C [28]: 16.3%; viability, T/C [29]: 14.8%; viability, T/C [30]: 11.8%; viability, T/C [31]: 105%; viability, T/C [32]: 210%; viability, T/C [33]: 63.6%; viability, T/C [34]: 23%; viability, T/C [35]: 18.2%; viability, T/C [36]: 14.1%

Question: For `O=C(c1cc(Cc2n[nH]c(=O)c3ccccc23)ccc1F)N1CCN(C(=O)C2CC2)CC1` + Nc1ccc(C#CCN(C(=O)Cc2ncc(C(F)(F)F)cc2C(F)(F)F)c2ccc(F)cc2)nn1, which IC50 (second compound 0.0316 µM) is on record?
Answer: The IC50 was greater than 10000 nM.

Question: What about the IC50 (second compound 0.1 µM) of the same molecule?
Answer: The IC50 was greater than 10000 nM.

Question: What about the IC50 (second compound 0.316 µM) of the same molecule?
Answer: The IC50 was greater than 10000 nM.

Question: And the IC50 (second compound 1 µM)?
Answer: The IC50 was greater than 10000 nM.

Question: And the IC50 (second compound 3.16 µM)?
Answer: Its IC50 is greater than 10000 nM.

Question: What about the IC50 (second compound 10 µM) of the same molecule?
Answer: Its IC50 is greater than 10000 nM.

Question: What about the viability, T/C [1] of the same molecule?
Answer: Its viability, T/C is 97.5%.

Question: What about the viability, T/C [2] of the same molecule?
Answer: Its viability, T/C is 126%.

Question: And the viability, T/C [3]?
Answer: Its viability, T/C is 104%.

Question: What about the viability, T/C [4] of the same molecule?
Answer: The viability, T/C was 98%.

Question: And the viability, T/C [5]?
Answer: Its viability, T/C is 94%.

Question: And the viability, T/C [6]?
Answer: The viability, T/C was 150%.

Question: And the viability, T/C [7]?
Answer: The viability, T/C was 95%.

Question: And the viability, T/C [8]?
Answer: The viability, T/C was 132%.

Question: And the viability, T/C [9]?
Answer: The viability, T/C was 113%.

Question: And the viability, T/C [10]?
Answer: Its viability, T/C is 90.8%.

Question: And the viability, T/C [11]?
Answer: The viability, T/C was 125%.

Question: What about the viability, T/C [12] of the same molecule?
Answer: Its viability, T/C is 119%.

Question: What about the viability, T/C [13] of the same molecule?
Answer: Its viability, T/C is 91.6%.

Question: What about the viability, T/C [14] of the same molecule?
Answer: The viability, T/C was 128%.

Question: What about the viability, T/C [15] of the same molecule?
Answer: Its viability, T/C is 96.9%.

Question: What about the viability, T/C [16] of the same molecule?
Answer: The viability, T/C was 98.8%.

Question: And the viability, T/C [17]?
Answer: Its viability, T/C is 129%.

Question: What about the viability, T/C [18] of the same molecule?
Answer: Its viability, T/C is 162%.

Question: What about the viability, T/C [19] of the same molecule?
Answer: Its viability, T/C is 98.7%.

Question: What about the viability, T/C [20] of the same molecule?
Answer: The viability, T/C was 113%.

Question: And the viability, T/C [21]?
Answer: Its viability, T/C is 105%.

Question: What about the viability, T/C [22] of the same molecule?
Answer: The viability, T/C was 109%.

Question: And the viability, T/C [23]?
Answer: The viability, T/C was 121%.

Question: What about the viability, T/C [24] of the same molecule?
Answer: The viability, T/C was 163%.

Question: What about the viability, T/C [25] of the same molecule?
Answer: Its viability, T/C is 97.6%.

Question: What about the viability, T/C [26] of the same molecule?
Answer: Its viability, T/C is 114%.

Question: And the viability, T/C [27]?
Answer: Its viability, T/C is 100%.

Question: What about the viability, T/C [28] of the same molecule?
Answer: The viability, T/C was 107%.

Question: What about the viability, T/C [29] of the same molecule?
Answer: The viability, T/C was 105%.

Question: What about the viability, T/C [30] of the same molecule?
Answer: Its viability, T/C is 134%.

Question: What about the viability, T/C [31] of the same molecule?
Answer: The viability, T/C was 99.4%.

Question: And the viability, T/C [32]?
Answer: The viability, T/C was 102%.

Question: And the viability, T/C [33]?
Answer: The viability, T/C was 123%.

Question: And the viability, T/C [34]?
Answer: Its viability, T/C is 99.6%.

Question: And the viability, T/C [35]?
Answer: Its viability, T/C is 113%.

Question: What about the viability, T/C [36] of the same molecule?
Answer: Its viability, T/C is 109%.

Question: `O=c1[nH]cc(F)c(=O)[nH]1` + Nc1ccc(C#CCN(C(=O)Cc2ncc(C(F)(F)F)cc2C(F)(F)F)c2ccc(F)cc2)nn1 was tested. Which IC50 (second compound 0.0316 µM) did it give?
Answer: Its IC50 is 2450 nM.

Question: What about the IC50 (second compound 0.1 µM) of the same molecule?
Answer: Its IC50 is 2160 nM.

Question: And the IC50 (second compound 0.316 µM)?
Answer: The IC50 was 3000 nM.

Question: And the IC50 (second compound 1 µM)?
Answer: Its IC50 is 2420 nM.

Question: And the IC50 (second compound 3.16 µM)?
Answer: The IC50 was 3060 nM.

Question: And the IC50 (second compound 10 µM)?
Answer: Its IC50 is 2750 nM.

Question: What about the viability, T/C [1] of the same molecule?
Answer: Its viability, T/C is 118%.

Question: And the viability, T/C [2]?
Answer: The viability, T/C was 110%.

Question: What about the viability, T/C [3] of the same molecule?
Answer: Its viability, T/C is 160%.

Question: What about the viability, T/C [4] of the same molecule?
Answer: Its viability, T/C is 65.3%.

Question: And the viability, T/C [5]?
Answer: Its viability, T/C is 47.4%.

Question: And the viability, T/C [6]?
Answer: The viability, T/C was 43.9%.

Question: And the viability, T/C [7]?
Answer: The viability, T/C was 90.8%.

Question: What about the viability, T/C [8] of the same molecule?
Answer: Its viability, T/C is 111%.

Question: And the viability, T/C [9]?
Answer: The viability, T/C was 142%.

Question: And the viability, T/C [10]?
Answer: Its viability, T/C is 66.6%.

Question: And the viability, T/C [11]?
Answer: Its viability, T/C is 46.6%.

Question: And the viability, T/C [12]?
Answer: The viability, T/C was 37.1%.

Question: What about the viability, T/C [13] of the same molecule?
Answer: The viability, T/C was 118%.

Question: What about the viability, T/C [14] of the same molecule?
Answer: Its viability, T/C is 122%.

Question: And the viability, T/C [15]?
Answer: The viability, T/C was 124%.

Question: What about the viability, T/C [16] of the same molecule?
Answer: Its viability, T/C is 63.2%.

Question: And the viability, T/C [17]?
Answer: The viability, T/C was 54%.

Question: And the viability, T/C [18]?
Answer: Its viability, T/C is 44.8%.

Question: And the viability, T/C [19]?
Answer: Its viability, T/C is 95.3%.

Question: What about the viability, T/C [20] of the same molecule?
Answer: Its viability, T/C is 112%.

Question: And the viability, T/C [21]?
Answer: The viability, T/C was 99.6%.

Question: What about the viability, T/C [22] of the same molecule?
Answer: The viability, T/C was 68.5%.

Question: What about the viability, T/C [23] of the same molecule?
Answer: The viability, T/C was 46.2%.

Question: What about the viability, T/C [24] of the same molecule?
Answer: The viability, T/C was 40%.

Question: And the viability, T/C [25]?
Answer: The viability, T/C was 103%.

Question: And the viability, T/C [26]?
Answer: The viability, T/C was 107%.

Question: And the viability, T/C [27]?
Answer: The viability, T/C was 104%.

Question: What about the viability, T/C [28] of the same molecule?
Answer: Its viability, T/C is 60.6%.

Question: What about the viability, T/C [29] of the same molecule?
Answer: The viability, T/C was 53.1%.

Question: What about the viability, T/C [30] of the same molecule?
Answer: Its viability, T/C is 46.2%.

Question: And the viability, T/C [31]?
Answer: The viability, T/C was 96.9%.

Question: What about the viability, T/C [32] of the same molecule?
Answer: The viability, T/C was 105%.

Question: And the viability, T/C [33]?
Answer: Its viability, T/C is 99.9%.

Question: What about the viability, T/C [34] of the same molecule?
Answer: The viability, T/C was 66.8%.

Question: What about the viability, T/C [35] of the same molecule?
Answer: The viability, T/C was 53.1%.

Question: What about the viability, T/C [36] of the same molecule?
Answer: The viability, T/C was 40.8%.
